The values below come from publication PMC6178183, “Development of a HPLC-MS/MS Method to Determine 11 Bioactive Compounds in Tongmai Yangxin Pill and Application to a Pharmacokinetic Study in Rats” (Evidence-based Complementary and Alternative Medicine : eCAM, 2018).

SMILES strings stand for the structures. Several values for one entry are separate records, joined by “and”; a condition that tells them apart may be missing. Equal entries are not always repeated.

Series [1] can be described thus: Pharmacokinetic study in rats after oral administration of TMYX extract (HPLC-MS/MS of plasma). Format: in vivo, Sprague–Dawley rats. The following applies: rat plasma; for AUC(0-inf) / half-life / AUC / k el: male, Sprague-Dawley; for AUC: read-out: AUC (0-tn); for k el: read-out: K e (converted); for T max1: n=6, mean ± SD. On the procedure: The HPLC-MS/MS system consists of an Agilent 1200 high-performance liquid chromatography coupled with an Aglient 6430 series triple quadrupole mass spectrometer with an electrospray ionization (ESI) source. The chromatographic separation was achieved on a CORTECS C18 column (4.6 mm × 150 mm, 2.7 μm), and the column temperature was kept at 30°C. Mobile phases which consisted of 0.1% formic acid in water (A) and acetonitrile (B) were used in the following gradient elution method: 0-10 min, 10%-85% B; 10-13 min, 85%-95% B; 13-19 min, 95%-95% B. The flow rate was set at 0.3 mL/min, and the injection volume was 10 μL. All data were analyzed by Mass Hunter workstation software (Agilent Technologies, USA).
The mass spectrometer was carried out in both positive and negative ionization multiple-reaction monitoring (MRM) mode. The source parameters were as follows: the capillary voltage set at 300 V for positive ionization mode and -300 V for negative ionization mode, the drying gas temperature was 320°C, the flow was 11 L/min, and nebulizing gas pressure was 30 psi.
The plasma (100 μL) was spiked with 20 μL of methanol, 20 μL of the IS (icariin, 1 μg/mL), and 20 μL of formic acid and then vortex-mixed. The mixture was extracted with 800 μL of ethyl acetate by vortex mixing for 5 min at room temperature. After centrifugation at 14,000 rpm for 10 min, the supernatant was collected to a clean tube and evaporated to dryness under a nitrogen stream. The residue was reconstituted in 50 μL of 50% methanol, vortexed for 5 min, and centrifuged at 14,000 rpm for 10 min. Finally, 10 μL supernatant was injected into the LC-MS/MS system for analysis.
Male Sprague–Dawley rats (230-250 g) were obtained from Beijing HFK Experimental Animal Technology Co., Ltd. The rats were maintained under the control environmental conditions and they fasted for 12 h with free access to water before the experiments. TMYX extracts were dissolved in CMC-Na and administrated orally to rats at 8.3 g/kg. The blood samples (200 μL) were collected from the rat fossa orbitalis vein at 0, 0.03, 0.083, 0.17, 0.25, 0.5, 1, 2, 4, 6, 8, 10, 12, 24, 36, and 48 h after oral administration to heparinized tubes. And then the blood samples were centrifuged at 7,000 rpm for 10 min to get the plasma sample immediately. Finally, the plasma obtained was stored at −70°C until analysis. Pharmacokinetic parameters were calculated by the computer program “Drug and Statistics 2.0” (DAS 2.0) (Medical College of Wannan, China).

The nature of series [2]: Stability of analytes in rat plasma QC samples under storage conditions. Format: in vitro ADME. Particulars: n=6, gallic acid, ononin, schisandrin, stilbene glycoside, liquiritigenin, rhein, verbascoside; for Measured Concentration, auto-sampler for 12 h: prepared rat plasma samples; for Measured Concentration, -70°C for 14 days / Measured Concentration, room temperature for 6 h / Measured Concentration, three freeze-thaw cycles: rat plasma. As for the experimental part:
Quality control (QC) samples at three concentrations (low, medium, and high concentration) were made up of appropriate mixed standard solutions with blank blood sample as calibration solutions to meet the required concentrations. All the solutions were kept at 4°C.
The stability of analytes in plasma samples was determined by analyzing QC samples of three concentration levels at different conditions: stored at autosampler for 12 h, at room temperature for 6 h, under three freeze-thaw cycles and stored at -70°C for 14 days. All stability studies were measured in six replicates.

[3] abbreviates: oral TMYX extract 8.3 g/kg single dose, n=6.
Where [4] appears, read: oral TMYX extract 8.3 g/kg single dose.
[5] abbreviates: high QC: spiked 2000 ng/mL glycyrrhizic acid, 1000 liquiritin, 200 emodin, 100 isoliquiritigenin.
The mark [6] stands for this setting: low QC: spiked 20 ng/mL glycyrrhizic acid, 10 liquiritin, 2 emodin, 1 isoliquiritigenin.
Setting [7] is: medium QC: spiked 200 ng/mL glycyrrhizic acid, 100 liquiritin, 20 emodin, 10 isoliquiritigenin.
The mark [8] stands for this setting: second peak, oral TMYX extract 8.3 g/kg single dose, n=6.

What is called AUC(0-inf) is the area under the concentration-time curve extrapolated to infinity. Lower therefore signals less exposure. For orientation: half-life means the time needed for the level to fall by half in the phase considered. Higher therefore signals slow decline. What is called AUC is the area under the concentration-time curve, a measure of exposure. In the case of `O=C(O)c1cc(O)c(O)c(O)c1` [gallic acid], in series [1] (setting [3]), the AUC(0-inf) amounted to 238 ± 173 ng·h/mL, the half-life is 3.01 ± 1.35 h, the AUC amounted to 215 ± 137 ng·h/mL and the k el was 7.5e-05 s⁻¹. In addition, the “C max1” value in series [1] (setting [3]) turned out to be 56.9 ± 42.8 ng/mL. Besides, in series [1] (setting [4]), the “T max1” value was 0.75 ± 0.67 h. In addition, in series [2] (setting [5]), the “Measured Concentration, auto-sampler for 12 h” value came out at 184.54 ± 2.46 ng/mL; the “Measured Concentration, -70°C for 14 days” value amounted to 199.19 ± 1.80 ng/mL; the “Measured Concentration, room temperature for 6 h” value (from here on “Measured Concentration … for 6 h”) was 205.97 ± 2.14 ng/mL; the “Measured Concentration, three freeze-thaw cycles” value came out at 196.77 ± 1.09 ng/mL. Moreover, in series [2] (setting [6]), the “Measured Concentration, auto-sampler for 12 h” value is 2.03 ± 0.05 ng/mL; the “Measured Concentration, -70°C for 14 days” value was determined as 1.99 ± 0.04 ng/mL; the “Measured Concentration … for 6 h” value was found to be 1.97 ± 0.03 ng/mL; the “Measured Concentration, three freeze-thaw cycles” value came to 1.93 ± 0.04 ng/mL. In addition, in series [2] (setting [7]), the “Measured Concentration, auto-sampler for 12 h” value was 19.27 ± 0.35 ng/mL; the “Measured Concentration, -70°C for 14 days” value was 19.26 ± 0.22 ng/mL; the “Measured Concentration … for 6 h” value was determined as 20.77 ± 1.09 ng/mL; the “Measured Concentration, three freeze-thaw cycles” value worked out at 20.08 ± 0.51 ng/mL.
`O=C(/C=C/c1ccc(O)cc1)c1ccc(O)cc1O` [isoliquiritigenin]: in series [1] (setting [3]), the total exposure AUC(0-inf) was 436 ± 154 ng·h/mL, the half-life is 13.5 ± 8.33 h, the exposure (AUC) worked out at 410 ± 131 ng·h/mL and the k el was 1.94e-05 s⁻¹. Also, the “C max1” value in series [1] (setting [3]) was 41.6 ± 24.2 ng/mL. Besides, the “detection in vivo at 48 h” value in series [1] (48 h after oral TMYX extract 8.3 g/kg) was “can still be detected in vivo at 48 h”. The “peaks in the mean plasma concentration-time profile” value in series [1] (oral TMYX extract 8.3 g/kg) is recorded as “double peaks”. In addition, the “T max1” value in series [1] (setting [4]) is 0.28 h and 0.28 ± 0.11 h. For the same molecule, in series [1] (setting [8]), the “C max2” value was found to be 24.9 ± 13.5 ng/mL; the “T max2” value is 7.00 h and 7.00 ± 2.45 h. In series [2] (setting [5]), the “Measured Concentration, auto-sampler for 12 h” value came out at 97.47 ± 1.99 ng/mL; the “Measured Concentration, -70°C for 14 days” value came to 100.74 ± 2.95 ng/mL; the “Measured Concentration … for 6 h” value stood at 106.11 ± 0.78 ng/mL; the “Measured Concentration, three freeze-thaw cycles” value amounted to 100.58 ± 0.91 ng/mL. Moreover, in series [2] (setting [6]), the “Measured Concentration, auto-sampler for 12 h” value worked out at 1.00 ± 0.02 ng/mL; the “Measured Concentration, -70°C for 14 days” value came out at 0.89 ± 0.01 ng/mL; the “Measured Concentration … for 6 h” value was 0.99 ± 0.01 ng/mL; the “Measured Concentration, three freeze-thaw cycles” value came out at 0.89 ± 0.02 ng/mL. In series [2] (setting [7]), the “Measured Concentration, auto-sampler for 12 h” value was 9.60 ± 0.04 ng/mL; the “Measured Concentration, -70°C for 14 days” value was 8.62 ± 0.04 ng/mL; the “Measured Concentration … for 6 h” value was determined as 10.86 ± 0.60 ng/mL; the “Measured Concentration, three freeze-thaw cycles” value came out at 8.69 ± 0.14 ng/mL.
In the case of `O=C1C[C@@H](c2ccc(O[C@@H]3O[C@H](CO)[C@@H](O)[C@H](O)[C@H]3O)cc2)Oc2cc(O)ccc21` [liquiritin], in series [1] (setting [3]), the AUC(0-inf) came out at 651 ± 220 ng·h/mL, the half-life is 2.16 ± 1.44 h, the exposure (AUC) was 637 ± 220 ng·h/mL and the k el was 0.000214 s⁻¹. For the same molecule, the “C max1” value in series [1] (setting [3]) is 199.9 ± 120.2 ng/mL. For the same molecule, the “T max1” value in series [1] (setting [4]) turned out to be 0.50 ± 0.46 h. For the same molecule, in series [2] (setting [5]), the “Measured Concentration, auto-sampler for 12 h” value is 869.12 ± 14.52 ng/mL; the “Measured Concentration, -70°C for 14 days” value was found to be 1021.69 ± 19.98 ng/mL; the “Measured Concentration … for 6 h” value was 1076.07 ± 10.27 ng/mL; the “Measured Concentration, three freeze-thaw cycles” value worked out at 952.89 ± 11.22 ng/mL. Also, in series [2] (setting [6]), the “Measured Concentration, auto-sampler for 12 h” value came to 10.26 ± 0.11 ng/mL; the “Measured Concentration, -70°C for 14 days” value came to 10.04 ± 0.12 ng/mL; the “Measured Concentration … for 6 h” value is 9.85 ± 0.09 ng/mL; the “Measured Concentration, three freeze-thaw cycles” value was 9.26 ± 0.16 ng/mL. Moreover, in series [2] (setting [7]), the “Measured Concentration, auto-sampler for 12 h” value was 108.02 ± 0.66 ng/mL; the “Measured Concentration, -70°C for 14 days” value was found to be 105.05 ± 1.73 ng/mL; the “Measured Concentration … for 6 h” value turned out to be 108.97 ± 1.51 ng/mL; the “Measured Concentration, three freeze-thaw cycles” value was determined as 109.67 ± 1.86 ng/mL.
